A value given as a limit tells only on which side of the number the result lay.

One experiment has as its target T1, Recombinant human IKKβ (residues 1-737) (Homo sapiens, UniProt O14920).
T1 construct: Recombinant human IKKβ (residues 1-737); GST (C); made in house
T1 sequence (O14920 1-737): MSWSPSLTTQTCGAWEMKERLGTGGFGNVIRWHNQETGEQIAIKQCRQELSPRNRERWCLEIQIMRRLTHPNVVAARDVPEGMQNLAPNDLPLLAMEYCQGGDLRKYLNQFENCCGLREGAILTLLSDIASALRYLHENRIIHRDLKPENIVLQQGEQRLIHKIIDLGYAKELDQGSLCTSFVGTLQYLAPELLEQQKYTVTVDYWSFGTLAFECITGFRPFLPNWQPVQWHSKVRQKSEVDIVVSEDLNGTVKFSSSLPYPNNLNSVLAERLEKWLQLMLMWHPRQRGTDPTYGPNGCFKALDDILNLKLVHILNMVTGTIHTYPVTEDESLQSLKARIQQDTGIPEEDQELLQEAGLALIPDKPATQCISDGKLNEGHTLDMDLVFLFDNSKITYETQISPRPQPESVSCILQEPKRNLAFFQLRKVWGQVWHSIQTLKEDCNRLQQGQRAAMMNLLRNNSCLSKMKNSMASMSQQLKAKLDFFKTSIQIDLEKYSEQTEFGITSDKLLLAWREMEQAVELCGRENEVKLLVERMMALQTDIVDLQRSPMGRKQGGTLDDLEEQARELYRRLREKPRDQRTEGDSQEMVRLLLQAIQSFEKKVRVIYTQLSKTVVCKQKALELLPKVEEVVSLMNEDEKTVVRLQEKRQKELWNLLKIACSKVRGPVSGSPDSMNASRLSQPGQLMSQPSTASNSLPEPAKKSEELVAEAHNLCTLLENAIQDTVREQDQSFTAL
The experiment is described as follows: IKK2 Assay (TR-FRET). The experiment is classed as biochemical. Particulars: IKK2 5 nM, GST-IκBα 25 nM, ATP 1 μM, 30 minutes at room temperature, read-out: pIC50 against IKK2 (converted). The method, then:
Recombinant human IKKβ (residues 1-737) was expressed in baculovirus as a C-terminal GST-tagged fusion protein, and its activity was assessed using a time-resolved fluorescence resonance energy transfer (TR-FRET) assay. Briefly, IKK2 (5 nM final) diluted in assay buffer (50 mM HEPES, 10 mM MgCl2, 1 mM CHAPS pH 7.4 with 1 mM DTT and 0.01% w/v BSA) was added to wells containing various concentrations of compound or DMSO vehicle (3% final). The reaction was initiated by the addition of GST-IκBα substrate (25 nM final)/ATP (1 μM final), in a total volume of 30 μl. The reaction was incubated for 30 minutes at room temperature, then terminated by the addition of 15 μl of 50 mM EDTA. Detection reagent (15 μl) in buffer (100 mM HEPES pH 7.4, 150 mM NaCl and 0.1% w/v BSA) containing antiphosphoserine-IκBα-32/36 monoclonal antibody 12C2 (Cell Signalling Technology, Beverly Mass., USA) labelled with W-1024 europium chelate (Wallac OY, Turku, Finland), and an APC-labelled anti-GST antibody (Prozyme, San Leandro, Calif., USA) was added and the reaction was further incubated for 60 minutes at room temperature. The degree of phosphorylation of GST-IκBα was measured using a Packard Discovery plate reader (Perkin-Elmer Life Sciences, Pangbourne, UK) as a ratio of specific 665 nm energy transfer signal to reference europium 620 nm signal.
A general note: TR-FRET usually uses a lanthanide donor and a delayed reading to cut background.
Take `NC(=O)c1cc(-c2ccccc2)cc2c(C3CCN(S(=O)(=O)CCOCC4CCOC4)CC3)c[nH]c12` (stereo not shown) [Example 200]: the IC50 is at most 10 µM.

On to `NC(=O)c1cc(-c2ccccc2)cc2c(C3CCN(S(=O)(=O)CCNCC4CCCCC4)CC3)c[nH]c12` [Example 38], for which the IC50 is at most 10 µM. `COCCCS(=O)(=O)N1CCC(c2c[nH]c3c(C(N)=O)cc(-c4cccc(CNCCN5CCCCC5)c4)cc23)CC1` [Example 249]: the IC50 was over 25.1 µM.

For the next experiment, the system named is human monocyte stimulated cytokine production (TNF-α). The experiment in a line: Monocyte Assay (LPS-stimulated TNF-α production). Type of experiment: cell-based. The conditions noted are these: human CD14+ monocytes, 200 ng/mL LPS, 24 hrs, TNF-α by ELISA. How it is done:
Effect of IKK-β inhibition on human monocyte stimulated cytokine production was assessed as follows: Monocytes were isolated from heparinized whole blood by Ficoll gradient, followed by purification of CD14+ cells using MACS magnetic cell separation beads. Isolated monocytes were then adhered to 96-well culture plates at 1×10^6 cells/mL in RPMI 1640 10% FBS (JRH Biosciences, Lenexa Kans.) for 2 h. to further enrich the monocyte population. The media was then removed, cells washed once with RPMI 1640, and 0.125 mL RPMI 1640 10% FBS was added to the wells. Test compounds are added to the wells 30 minutes prior to stimulation with a final vehicle concentration of 0.1% DMSO. Monocytes were activated by the addition of 200 ng/mL endotoxin (LPS; E. coli serotype 026:B6) (Sigma, St. Louis, Mo.) and incubated for 24 hrs at 37 C. Cell-free supernates were analyzed by ELISA for TNF-α using Pharmingen matched pair Abs. Viability of the cells was determined by10% trypan blue exclusion.
Consider `NC(=O)c1cc(-c2ccccc2)cc2c(C3CCN(S(=O)(=O)CCOCC4CCOC4)CC3)c[nH]c12` (stereo not shown) [Example 200], for which the IC50 is under 10 µM. The same measure, in the same setting: the value for `NC(=O)c1cc(-c2cccs2)cc2c(C3CCN(S(=O)(=O)CCCN4CCOCC4)CC3)c[nH]c12` [Example 73, 3-(1-{[3-(4-morpholinyl)propyl]sulfonyl}-4-piperidinyl)-5-(2-thienyl)-1H-indole-7-carboxamide] was under 10 µM.

Take `NC(=O)c1cc(-c2ccccc2)cc2c(C3CCN(S(=O)(=O)CCCN4CCOCC4)CC3)c[nH]c12` [Example 6, 3-(1-{[3-(4-morpholinyl)propyl]sulfonyl}-4-piperidinyl)-5-phenyl-1H-indole-7-carboxamide]: the IC50 was under 10 µM.

Take `CC(C)N(CCCS(=O)(=O)N1CCC(c2c[nH]c3c(C(N)=O)cc(-c4ccccc4)cc23)CC1)C(C)C` [Example 67, 3-[1-({3-[bis(1-methylethyl)amino]propyl}sulfonyl)-4-piperidinyl]-5-phenyl-1H-indole-7-carboxamide]: the IC50 was under 10 µM.

Take `Cn1cnc(S(=O)(=O)N2CCC(c3c[nH]c4c(C(N)=O)cc(-c5ccsc5)cc34)CC2)c1` [Example 280, 3-{1-[(1-methyl-1H-imidazol-4-yl)sulfonyl]-4-piperidinyl}-5-(3-thienyl)-1H-indole-7-carboxamide]: the IC50 was under 10 µM.

The compound `NC(=O)c1cc(-c2ccccc2)cc2c(C3CCN(S(=O)(=O)c4ccsc4)CC3)c[nH]c12` [Example 311, 5-phenyl-3-[1-(3-thienylsulfonyl)piperidin-4-yl]-1H-indole-7-carboxamide] came in with an IC50 of under 10 µM. With `CNCc1cccc(-c2cc(C(N)=O)c3[nH]cc(C4CCN(S(=O)(=O)CCCOC)CC4)c3c2)c1` [Example 223, 5-{3-[(methylamino)methyl]phenyl}-3-(1-{[3-(methyloxy)propyl]sulfonyl}-4-piperidinyl)-1H-indole-7-carboxamide], the IC50 was under 10 µM.

The values are drawn from patent publication US7858796B2, “Chemical compounds” (Glaxo Group Limited, priority 2004, dated 2010).
